Measurements published in publication PMC5218480 (PLoS ONE, 2017).

Test system: MV-4-11 cells
Assay: Gene expression microarray analysis (Affymetrix PrimeView) and GSEA
Type: cell-based, human
Parameters: RFU PODN (11730768_x_at) / Fold change /veh PODN (11730768_x_at) / RFU LINC00158 (11744669_a_at) / Fold change /veh LINC00158 (11744669_a_at) / RFU DUSP10 (11751237_a_at) / Fold change /veh DUSP10 (11751237_a_at) / RFU ID3 (11757404_x_at) / Fold change /veh ID3 (11757404_x_at) / RFU PLEKHG5 (11737974_s_at) / Fold change /veh PLEKHG5 (11737974_s_at) / RFU LRRC4B (11730491_at) / Fold change /veh LRRC4B (11730491_at) / RFU GIMAP4 (11747438_a_at) / Fold change /veh GIMAP4 (11747438_a_at) / RFU KRT8 (11758183_x_at) / Fold change /veh KRT8 (11758183_x_at) / RFU CNN1 (11734310_a_at) / Fold change /veh CNN1 (11734310_a_at) / RFU VPS37D (11726825_at) / Fold change /veh VPS37D (11726825_at) / RFU C10orf10 (11716522_x_at) / Fold change /veh C10orf10 (11716522_x_at) / RFU KIR2DL2 /// KIR2DL4 /// KIR2DL5A /// KIR2DL5B /// KIR2DS1 /// KIR2DS2 /// KIR2DS3 /// KIR2DS4 /// KIR3DL3 /// KIR3DL3 /// KIR3DS1 (11738374_at) / Fold change /veh KIR2DL2 /// KIR2DL4 /// KIR2DL5A /// KIR2DL5B /// KIR2DS1 /// KIR2DS2 /// KIR2DS3 /// KIR2DS4 /// KIR3DL3 /// KIR3DL3 /// KIR3DS1 (11738374_at) / RFU C1QL1 (11718748_at) / Fold change /veh C1QL1 (11718748_at) / RFU TMPRSS4 (11747572_a_at) / Fold change /veh TMPRSS4 (11747572_a_at) / RFU HAMP (11756126_x_at) / Fold change /veh HAMP (11756126_x_at) / RFU RNFT2 (11725882_a_at) / Fold change /veh RNFT2 (11725882_a_at) / RFU NR4A2 (11747474_a_at) / Fold change /veh NR4A2 (11747474_a_at) / RFU ABCC12 (11746883_a_at) / Fold change /veh ABCC12 (11746883_a_at) / RFU TMEM136 (11760407_x_at) / Fold change /veh TMEM136 (11760407_x_at) / RFU CLDN22 /// WWC2 (11732394_at) / Fold change /veh CLDN22 /// WWC2 (11732394_at) / RFU HLA-DPB1 (11760878_x_at) / Fold change /veh HLA-DPB1 (11760878_x_at) / RFU SPINT1 (11716480_a_at) / Fold change /veh SPINT1 (11716480_a_at) / RFU GAP43 (11754022_s_at) / Fold change /veh GAP43 (11754022_s_at) / RFU A4GNT (11735810_at) / Fold change /veh A4GNT (11735810_at) / RFU PRB3 (11715151_x_at) / Fold change /veh PRB3 (11715151_x_at) / RFU TUBB4B (11761932_at) / Fold change /veh TUBB4B (11761932_at) / RFU CAPN14 (11732068_a_at) / Fold change /veh CAPN14 (11732068_a_at) / RFU TMCC2 (11721928_a_at) / Fold change /veh TMCC2 (11721928_a_at) / RFU IRGQ (11745062_a_at) / Fold change /veh IRGQ (11745062_a_at) / RFU FAM174B (11720279_a_at) / Fold change /veh FAM174B (11720279_a_at) / RFU TMPRSS4 (11748680_a_at) / Fold change /veh TMPRSS4 (11748680_a_at) / RFU FAM212B (11763350_a_at) / Fold change /veh FAM212B (11763350_a_at) / RFU PLEKHG5 (11743358_a_at) / Fold change /veh PLEKHG5 (11743358_a_at) / RFU ZSCAN30 (11745921_a_at) / Fold change /veh ZSCAN30 (11745921_a_at) / RFU CMKLR1 (11741424_a_at) / Fold change /veh CMKLR1 (11741424_a_at) / RFU LOC101060620 /// MAPK8IP1 (11723275_at) / Fold change /veh LOC101060620 /// MAPK8IP1 (11723275_at) / RFU SPTSSB (11747773_x_at) / Fold change /veh SPTSSB (11747773_x_at) / RFU PRSS12 (11739890_at) / Fold change /veh PRSS12 (11739890_at) / RFU BIN1 (11741810_x_at) / Fold change /veh BIN1 (11741810_x_at) / RFU WNT11 (11732464_a_at) / Fold change /veh WNT11 (11732464_a_at) / RFU C10orf10 (11716521_a_at) / Fold change /veh C10orf10 (11716521_a_at) / RFU C5orf56 (11738089_at) / Fold change /veh C5orf56 (11738089_at) / RFU CYB561 (11721691_x_at) / Fold change /veh CYB561 (11721691_x_at) / RFU ANKRD19P (11752326_a_at) / Fold change /veh ANKRD19P (11752326_a_at) / RFU OR2T12 /// OR2T33 /// OR2T8 (11738714_s_at) / Fold change /veh OR2T12 /// OR2T33 /// OR2T8 (11738714_s_at) / RFU VCAN (11748164_a_at) / Fold change /veh VCAN (11748164_a_at) / RFU JSRP1 (11732532_at) / Fold change /veh JSRP1 (11732532_at) / RFU KRTAP10-11 (11738290_x_at) / Fold change /veh KRTAP10-11 (11738290_x_at) / RFU MYO3A (11730013_a_at) / Fold change /veh MYO3A (11730013_a_at) / RFU EBF3 (11725865_a_at) / Fold change /veh EBF3 (11725865_a_at) / RFU CAMK2N1 (11719241_x_at) / Fold change /veh CAMK2N1 (11719241_x_at) / RFU C5orf56 (11738088_a_at) / Fold change /veh C5orf56 (11738088_a_at) / RFU OLFML3 (11715873_a_at) / Fold change /veh OLFML3 (11715873_a_at) / RFU LOC100653217 /// NTM (11731650_a_at) / Fold change /veh LOC100653217 /// NTM (11731650_a_at) / RFU MAPK11 (11762145_a_at) / Fold change /veh MAPK11 (11762145_a_at) / RFU FIZ1 (11724087_x_at) / Fold change /veh FIZ1 (11724087_x_at) / RFU OASL (11726364_x_at) / Fold change /veh OASL (11726364_x_at) / RFU SOX15 (11748057_x_at) / Fold change /veh SOX15 (11748057_x_at) / RFU CD79A (11719716_a_at) / Fold change /veh CD79A (11719716_a_at) / RFU HIST1H1D (11736915_at) / Fold change /veh HIST1H1D (11736915_at) / RFU CASKIN2 (11723855_a_at) / Fold change /veh CASKIN2 (11723855_a_at) / RFU LOC730098 (11760151_x_at) / Fold change /veh LOC730098 (11760151_x_at) / RFU OR4N2 (11742367_at) / Fold change /veh OR4N2 (11742367_at) / RFU PRRT2 (11749266_a_at) / Fold change /veh PRRT2 (11749266_a_at) / RFU SNX32 (11753110_a_at) / Fold change /veh SNX32 (11753110_a_at) / RFU CDHR5 (11726645_a_at) / Fold change /veh CDHR5 (11726645_a_at) / RFU RCAN1 (11760418_a_at) / Fold change /veh RCAN1 (11760418_a_at) / RFU FAM167A (11723789_a_at) / Fold change /veh FAM167A (11723789_a_at) / RFU FAM26E (11764081_at) / Fold change /veh FAM26E (11764081_at) / RFU ISYNA1 (11749810_s_at) / Fold change /veh ISYNA1 (11749810_s_at) / RFU ACY1 (11761880_at) / Fold change /veh ACY1 (11761880_at) / RFU 11764098_at / Fold change /veh 11764098_at / RFU SAMD14 (11745864_x_at) / Fold change /veh SAMD14 (11745864_x_at) / RFU NPB (11741838_a_at) / Fold change /veh NPB (11741838_a_at) / RFU TMPRSS6 (11731388_a_at) / Fold change /veh TMPRSS6 (11731388_a_at) / RFU KRTAP10-2 (11738614_at) / Fold change /veh KRTAP10-2 (11738614_at) / RFU ARHGAP8 /// PRR5-ARHGAP8 (11727945_x_at) / Fold change /veh ARHGAP8 /// PRR5-ARHGAP8 (11727945_x_at) / RFU KRTAP5-7 /// NADSYN1 (11734609_at) / Fold change /veh KRTAP5-7 /// NADSYN1 (11734609_at) / RFU RASL12 (11751679_a_at) / Fold change /veh RASL12 (11751679_a_at) / RFU CDKN2B (11736163_a_at) / Fold change /veh CDKN2B (11736163_a_at) / RFU PRF1 (11729649_at) / Fold change /veh PRF1 (11729649_at) / RFU, ZNF638 /// ZNF638-IT1 / Fold change vs veh, ZNF638 /// ZNF638-IT1 / RFU, PANK3 / Fold change vs veh, PANK3 / RFU, SH3YL1 / Fold change vs veh, SH3YL1 / RFU, ZEB2 / Fold change vs veh, ZEB2 / RFU, NRIP1 / Fold change vs veh, NRIP1 / RFU, PTTG1IP / Fold change vs veh, PTTG1IP / RFU, CAPN2 / Fold change vs veh, CAPN2 / RFU, MED14 / Fold change vs veh, MED14 / RFU, SNORA58 / Fold change vs veh, SNORA58 / RFU, C1orf63 / Fold change vs veh, C1orf63 / RFU, LRRFIP1 / Fold change vs veh, LRRFIP1 / RFU, NDUFAF7 / Fold change vs veh, NDUFAF7 / RFU, SLC12A2 / Fold change vs veh, SLC12A2 / RFU, IBTK / Fold change vs veh, IBTK / RFU, ESF1 / Fold change vs veh, ESF1 / Fold change vs veh, TMEM50B / RFU, TAOK1 / Fold change vs veh, TAOK1 / RFU, ACBD3 / Fold change vs veh, ACBD3 / RFU, TMA16 / Fold change vs veh, TMA16 / RFU, RWDD3 / Fold change vs veh, RWDD3 / RFU, BCAT1 / Fold change vs veh, BCAT1 / RFU, EDEM3 / Fold change vs veh, EDEM3 / RFU, TMEM33 / Fold change vs veh, TMEM33 / RFU, WDR75 / Fold change vs veh, WDR75 / RFU, AHCTF1 / Fold change vs veh, AHCTF1 / RFU, TFRC / Fold change vs veh, TFRC / RFU, ZDHHC17 / Fold change vs veh, ZDHHC17 / RFU, NOM1 / Fold change vs veh, NOM1 / RFU, ARL8B / Fold change vs veh, ARL8B / RFU, ZBTB11 / Fold change vs veh, ZBTB11 / RFU, TAMM41 / Fold change vs veh, TAMM41 / RFU, KIAA1704 /// LOC100996395 / Fold change vs veh, KIAA1704 /// LOC100996395 / RFU, ING1 / Fold change vs veh, ING1 / RFU, TRMT61B / Fold change vs veh, TRMT61B / RFU, FUBP3 / Fold change vs veh, FUBP3 / RFU, TP53 / Fold change vs veh, TP53 / RFU, TNKS2 / Fold change vs veh, TNKS2 / RFU, ZFP14 / Fold change vs veh, ZFP14 / RFU, ACTR2 / Fold change vs veh, ACTR2 / RFU, PPP3R1 / Fold change vs veh, PPP3R1 / RFU, PIK3R1 / Fold change vs veh, PIK3R1 / RFU, HNRNPA1 / Fold change vs veh, HNRNPA1 / RFU, RNF170 / Fold change vs veh, RNF170 / RFU, ZNF28 / Fold change vs veh, ZNF28 / RFU, RNGTT / Fold change vs veh, RNGTT / RFU, OGT / Fold change vs veh, OGT / RFU, BRD1 / Fold change vs veh, BRD1 / RFU, MARS / Fold change vs veh, MARS / RFU, ZNF655 / Fold change vs veh, ZNF655 / RFU, FAHD1 / Fold change vs veh, FAHD1 / RFU, BDP1 / Fold change vs veh, BDP1 / RFU, LRRCC1 / Fold change vs veh, LRRCC1 / RFU, ARID1A / Fold change vs veh, ARID1A / RFU, ZNF146 / Fold change vs veh, ZNF146 / RFU, ZNF330 / Fold change vs veh, ZNF330 / RFU, GPN3 / Fold change vs veh, GPN3 / RFU, C9orf123 / Fold change vs veh, C9orf123 / RFU, N4BP2L2 / Fold change vs veh, N4BP2L2 / RFU, ARFIP1 / Fold change vs veh, ARFIP1 / RFU, FAM179B / Fold change vs veh, FAM179B / RFU, BCL10 / Fold change vs veh, BCL10 / RFU, UHRF1BP1L / Fold change vs veh, UHRF1BP1L / RFU, BET1 / Fold change vs veh, BET1 / RFU, CNOT2 / Fold change vs veh, CNOT2 / RFU, ZNF268 / Fold change vs veh, ZNF268 / Fold change vs veh, ZNF507 / RFU, DGCR2 / Fold change vs veh, DGCR2 / RFU, WDSUB1 / Fold change vs veh, WDSUB1 / Fold change vs veh, HSP90B1 /// MIR3652 / RFU, ADSS / Fold change vs veh, ADSS / RFU, GK / Fold change vs veh, GK / RFU, ZNF148 / Fold change vs veh, ZNF148 / RFU, TAF9 / Fold change vs veh, TAF9 / RFU, SLC1A5 / Fold change vs veh, SLC1A5 / RFU, SLMO2 / Fold change vs veh, SLMO2 / RFU, ABCC4 / Fold change vs veh, ABCC4 / RFU, LOC101060439 /// RAP1B / Fold change vs veh, LOC101060439 /// RAP1B / RFU, RFX7 / Fold change vs veh, RFX7 / RFU, GTPBP10 / Fold change vs veh, GTPBP10 / RFU, CNEP1R1 / Fold change vs veh, CNEP1R1 / RFU, BIVM-ERCC5 /// ERCC5 / Fold change vs veh, BIVM-ERCC5 /// ERCC5 / RFU, ILF3 / Fold change vs veh, ILF3 / RFU 11762660_at / Fold change /veh 11762660_at / RFU VCAN (11757783_s_at) / Fold change /veh VCAN (11757783_s_at) / RFU DDX43 (11728927_at) / Fold change /veh DDX43 (11728927_at) / RFU KRT8 (11758188_x_at) / Fold change /veh KRT8 (11758188_x_at) / RFU NKD1 (11759106_at) / Fold change /veh NKD1 (11759106_at) / RFU SRD5A1 (11742802_a_at) / Fold change /veh SRD5A1 (11742802_a_at) / RFU TPSAB1 /// TPSB2 (11721975_s_at) / Fold change /veh TPSAB1 /// TPSB2 (11721975_s_at) / RFU GSTM3 (11746129_a_at) / Fold change /veh GSTM3 (11746129_a_at) / RFU IL23R (11737362_x_at) / Fold change /veh IL23R (11737362_x_at) / RFU TMEM51 (11727254_a_at) / Fold change /veh TMEM51 (11727254_a_at) / RFU PIWIL2 (11732686_x_at) / Fold change /veh PIWIL2 (11732686_x_at) / RFU ORM1 (11744905_x_at) / Fold change /veh ORM1 (11744905_x_at) / RFU CCDC152 (11743942_at) / Fold change /veh CCDC152 (11743942_at) / RFU ECM1 (11717891_a_at) / Fold change /veh ECM1 (11717891_a_at) / RFU IL23R (11748794_a_at) / Fold change /veh IL23R (11748794_a_at) / RFU TNFAIP8L3 (11732012_x_at) / Fold change /veh TNFAIP8L3 (11732012_x_at) / RFU MBOAT4 (11741988_at) / Fold change /veh MBOAT4 (11741988_at) / RFU 11764193_at / Fold change /veh 11764193_at / RFU TMEM53 (11763286_at) / Fold change /veh TMEM53 (11763286_at) / RFU MAGEB2 (11727129_at) / Fold change /veh MAGEB2 (11727129_at) / RFU TMEM200A (11744735_a_at) / Fold change /veh TMEM200A (11744735_a_at) / RFU CCDC152 (11751479_a_at) / Fold change /veh CCDC152 (11751479_a_at) / RFU FAM211A (11726209_a_at) / Fold change /veh FAM211A (11726209_a_at) / RFU RGS16 (11746705_a_at) / Fold change /veh RGS16 (11746705_a_at) / RFU VCAN (11755009_s_at) / Fold change /veh VCAN (11755009_s_at) / RFU RHOB (11743442_s_at) / Fold change /veh RHOB (11743442_s_at) / RFU RGS16 (11720943_a_at) / Fold change /veh RGS16 (11720943_a_at) / RFU RGS16 (11720944_at) / Fold change /veh RGS16 (11720944_at) / RFU, VPS4B / Fold change vs veh, VPS4B / RFU, CREB1 / Fold change vs veh, CREB1 / RFU, DNAJC13 / Fold change vs veh, DNAJC13 / RFU, GNAQ / Fold change vs veh, GNAQ / RFU, CDK5R1 / Fold change vs veh, CDK5R1 / RFU, ZRANB3 / Fold change vs veh, ZRANB3 / RFU, CUL4A / Fold change vs veh, CUL4A / RFU, CCNY / Fold change vs veh, CCNY / RFU, UFL1 / Fold change vs veh, UFL1 / RFU, COG3 / Fold change vs veh, COG3 / RFU, DIAPH2 / Fold change vs veh, DIAPH2 / RFU, SKA2 / Fold change vs veh, SKA2 / RFU, AFF3 / Fold change vs veh, AFF3 / RFU, LMF1 / Fold change vs veh, LMF1 / RFU, IPO11 / Fold change vs veh, IPO11 / RFU, DFFB / Fold change vs veh, DFFB / RFU, FOXP1 / Fold change vs veh, FOXP1 / RFU, CARD8 / Fold change vs veh, CARD8 / RFU, STRN3 / Fold change vs veh, STRN3 / RFU, ADK / Fold change vs veh, ADK / RFU, RASSF2 / Fold change vs veh, RASSF2 / RFU, WIPF1 / Fold change vs veh, WIPF1 / RFU, LARP1B / Fold change vs veh, LARP1B / RFU, RASA1 / Fold change vs veh, RASA1 / RFU, RB1 / Fold change vs veh, RB1 / RFU, PPFIA1 / Fold change vs veh, PPFIA1 / RFU, MAT2A / Fold change vs veh, MAT2A / RFU, CCT5 / Fold change vs veh, CCT5 / RFU, WDR92 / Fold change vs veh, WDR92 / RFU, CUX1 / Fold change vs veh, CUX1 / RFU, TTC7A / Fold change vs veh, TTC7A / RFU, TMEM135 / Fold change vs veh, TMEM135 / RFU, DEPTOR / Fold change vs veh, DEPTOR / RFU, CPM / Fold change vs veh, CPM / RFU, DNAJB6 / Fold change vs veh, DNAJB6 / RFU, CACNA2D3 / Fold change vs veh, CACNA2D3 / RFU, DTX4 / Fold change vs veh, DTX4 / RFU, TFCP2 / Fold change vs veh, TFCP2 / RFU, GMCL1 /// GMCL1P1 / Fold change vs veh, GMCL1 /// GMCL1P1 / RFU, AEBP2 / Fold change vs veh, AEBP2 / RFU, SNHG1 /// SNORD22 /// SNORD25 /// SNORD26 /// SNORD27 /// SNORD28 /// SNORD29 /// SNORD31 / Fold change vs veh, SNHG1 /// SNORD22 /// SNORD25 /// SNORD26 /// SNORD27 /// SNORD28 /// SNORD29 /// SNORD31 / Fold change (Aza/veh), C12orf56 (ProbeSet 11735607_a_at) / Fold change (ACY-1035/veh), C12orf56 (ProbeSet 11735607_a_at) / Fold change (Aza/veh), FGFR1OP (ProbeSet 11751329_s_at) / Fold change (ACY-1035/veh), FGFR1OP (ProbeSet 11751329_s_at) / Fold change (Aza/veh), VPS36 (ProbeSet 11739960_a_at) / Fold change (ACY-1035/veh), VPS36 (ProbeSet 11739960_a_at) / RFU SYPL1 (11715823_x_at) / Fold change /veh SYPL1 (11715823_x_at) / RFU IGFBP7 (11715501_s_at) / Fold change /veh IGFBP7 (11715501_s_at) / RFU REEP3 (11722064_at) / Fold change /veh REEP3 (11722064_at) / RFU IGLL1 (11728026_x_at) / Fold change /veh IGLL1 (11728026_x_at): dose or concentration left out as unconfirmed
Settings: ProbeSet 11720270_a_at; LIST B

With `Nc1ncn([C@@H]2O[C@H](CO)[C@@H](O)[C@H]2O)c(=O)n1` [azacitidine] the “Fold change vs veh, IBTK” value was 0.96.
